Experimental data as given in paper PMC6269892, “Ligand Binding Affinities of Arctigenin and Its Demethylated Metabolites to Estrogen Receptor Alpha” (Molecules, 2013).

Legend:
[1] = biological target: T1, estrogen receptor alpha (ERalpha) (Homo sapiens, UniProt P03372); experiment: Estrogen-R (α) competitor screening kit, ligand binding screen; conditions: for IC50: ER alpha competitor binding, non-linear regression, one site competition; for RBA (Relative binding affinity): IC50 of estradiol divided by IC50 of the tested compound, multiplied by 100, Estradiol = 100; for % Binding to ERα: mean ± S.E.M., n = 4
T1 construct: purchased Wako Chemicals (Osaka, Japan)
T1 sequence (P03372 1-595): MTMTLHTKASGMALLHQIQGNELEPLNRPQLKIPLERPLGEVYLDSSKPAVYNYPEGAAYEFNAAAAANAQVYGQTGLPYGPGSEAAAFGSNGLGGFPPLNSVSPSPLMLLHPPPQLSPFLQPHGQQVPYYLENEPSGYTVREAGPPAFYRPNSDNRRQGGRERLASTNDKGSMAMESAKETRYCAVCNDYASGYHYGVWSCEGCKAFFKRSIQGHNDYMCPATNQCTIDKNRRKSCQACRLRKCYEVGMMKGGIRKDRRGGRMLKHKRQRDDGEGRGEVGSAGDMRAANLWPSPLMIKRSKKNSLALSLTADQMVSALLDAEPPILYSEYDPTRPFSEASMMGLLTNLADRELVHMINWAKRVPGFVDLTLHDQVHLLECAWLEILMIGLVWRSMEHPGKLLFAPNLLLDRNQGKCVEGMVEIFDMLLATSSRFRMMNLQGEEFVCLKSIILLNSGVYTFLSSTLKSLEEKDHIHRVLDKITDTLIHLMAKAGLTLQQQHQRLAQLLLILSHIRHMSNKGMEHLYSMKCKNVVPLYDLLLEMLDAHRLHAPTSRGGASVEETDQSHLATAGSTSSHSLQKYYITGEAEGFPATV
Method: An estrogen-R (α) competitor screening kit was purchased from Wako Chemicals (Osaka, Japan). The assay depends on the competition between the samples applied in different concentrations and the labeled estrogen mixture. The amount of the ligand that binds to the ERalpha coated on the microplate well is determined by the dynamic equilibrium among all the ligand concentrations in the mixture, the difference of their binding affinities to the receptor, and the incubation time. Therefore, the reduction in fluorescence intensities from the labeled estrogen retained is an indication of the affinity of the added compounds to the estrogen receptor. (−)-Arctigenin (8) and its metabolites were tested in 10^−5, 10^−4, 5 × 10^−4, and 5 × 10^−3 M concentrations. […] The results were calculated as percentages of the negative control.
Each set of experiments was repeated at least three times. Values are expressed as mean ± S.E.M. One-way analysis of variance followed by Dunnett’s test was used for statistical analysis. The IC50 was calculated using a non-linear regression analysis (for one site competition).

[2] = tested on: MCF-7 human breast cancer cells; parameters: method as in earlier work; conditions: estradiol-mediated proliferative characteristics; ref 10 (Xie et al.); cited from earlier work
[3] = compound at 5 × 10^−3 M, percentage of the negative control
[4] = compound at 5 × 10^−4 M, percentage of the negative control
[5] = compound at 10^−4 M, percentage of the negative control
[6] = compound at 10^−5 M, percentage of the negative control (labeled estrogen mixture)

| Compound | IC50 [1] [µM] | RBA (Relative binding affinity) [1] | % Binding to ERα [1, 3] [%] | % Binding to ERα [1, 4] [%] | % Binding to ERα [1, 5] [%] | % Binding to ERα [1, 6] [%] | proliferation of MCF-7 human breast cancer cells [2] |
| --- | --- | --- | --- | --- | --- | --- | --- |
| O=C1OC[C@H](Cc2ccc(O)c(O)c2)[C@H]1Cc1ccc(O)c(O)c1 [Compound 1, (−)-dihydroxyenterolactone] | 1600 | 1.2 × 10^−3 | 65.3 ± 0.2 | 34.8 ± 1.3 | 13.7 ± 0.7 | 5.6 ± 3.3 | – |
| COc1cc(C[C@H]2C(=O)OC[C@@H]2Cc2ccc(O)c(O)c2)ccc1O [Compound 2, (2R,3R)-2-(4-hydroxy-3-methoxybenzyl)-3-(3,4-dihydroxybenzyl)-butyrolactone] | 790 | 2.5 × 10^−3 | 67.7 ± 0.2 | 44.4 ± 0.9 | 13.5 ± 2.0 | 1.4 ± 1.2 | – |
| COc1cc(C[C@H]2COC(=O)[C@@H]2Cc2ccc(O)c(O)c2)ccc1O [Compound 3] | 1900 | 1.0 × 10^−3 | 67.5 ± 0.2 | 25.8 ± 0.8 | 14.1 ± 1.3 | 2.2 ± 1.6 | – |
| COc1ccc(C[C@H]2COC(=O)[C@@H]2Cc2ccc(O)c(O)c2)cc1O [Compound 4] | 2500 | 7.9 × 10^−4 | 63.2 ± 0.3 | 19.6 ± 2.3 | −0.5 ± 0.7 | 1.0 ± 1.4 | – |
| COc1cc(C[C@H]2COC(=O)[C@@H]2Cc2ccc(O)c(OC)c2)ccc1O [Compound 5, (−)-matairesinol] | > 5000 | – | 17.6 ± 1.1 | 0.1 ± 2.6 | 18.1 ± 9.0 | 0.4 ± 0.9 | – |
| COc1ccc(C[C@H]2COC(=O)[C@@H]2Cc2ccc(O)c(O)c2)cc1OC [Compound 6] | 2500 | 7.9 × 10^−4 | 64.5 ± 0.2 | 16.6 ± 0.9 | 1.4 ± 2.4 | −2.3 ± 0.9 | stimulated the proliferation |
| COc1ccc(C[C@H]2COC(=O)[C@@H]2Cc2ccc(O)c(OC)c2)cc1O [Compound 7] | > 5000 | – | 30.1 ± 1.7 | −4.2 ± 0.8 | 1.2 ± 1.7 | 3.6 ± 0.6 | – |
| COc1cc(C[C@H]2C(=O)OC[C@@H]2Cc2ccc(OC)c(OC)c2)ccc1O [Compound 8, (−)-arctigenin] | > 5000 | – | 19.4 ± 1.5 | −4.1 ± 3.5 | −4.3 ± 0.8 | −1.4 ± 0.8 | – |
